The text below walks through data of ChEMBL document CHEMBL1201862, “PubChem BioAssay data set” (2004).

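All cell lines were grown in 96-well plates and treated with compound for 48 hours. GI50 = concentration required for 50% inhibition of growth.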 Calls of active or inactive are those of the source. No stated cut-off is given here; in the data, active = GI50 up to about 1.1 µM and inactive = higher.

Some test systems named below: 786-0; BT-549; CAKI-1; DU-145; HCC 2998; Hs-578T; K562; KM12; LOX IMVI; NCI/ADR-RES; RPMI-8226; RXF 393; SF-539; SK-MEL-2; SK-OV-3; SNB-19; SNB-75; UACC-62; UO-31.
Assay in all cases: inhibition of tumour cell growth, NCI panel, 48 h

With `COc1ccc(/C=C/C(=O)N[C@@H]2C(=O)N3[C@@H]2SC(C)(C)[C@@H]3C(=O)O)cc1OC`, the GI50 with 786-0, in the assay with BT-549, with CAKI-1, in the assay with DU-145, with HCC 2998 and with Hs-578T was > 100 µM (inactive) throughout. Besides, the GI50 in the assay with K562, with KM12, with LOX IMVI, in the assay on NCI/ADR-RES, with RPMI-8226 and with RXF 393 was > 100 µM (inactive) each time. The GI50 with SF-539, in the assay with SK-MEL-2, in the assay with SK-OV-3, in the assay on SNB-19, in the assay on SNB-75 and in the assay on UACC-62 was > 100 µM (inactive) throughout. The GI50 with UO-31 is > 100 µM (inactive).

On to `COc1ccc(CC[N+]2(C)COc3cc4oc(=O)cc(C)c4cc3C2)cc1OC` (stereo not drawn), for which the GI50 in the assay on 786-0, in the assay with BT-549, in the assay with CAKI-1, with DU-145, in the assay with HCC 2998 and with Hs-578T was > 100 µM (inactive) in each case. Moreover, the GI50 with K562 is 2.45 µM (inactive); in the assay on KM12, > 100 µM (inactive); in the assay with LOX IMVI, > 100 µM (inactive); in the assay with NCI/ADR-RES, > 100 µM (inactive); in the assay on RPMI-8226 it was > 100 µM (inactive); in the assay with RXF 393, > 100 µM (inactive). Besides, the GI50 in the assay with SK-MEL-2, with SK-OV-3, with SNB-19, with SNB-75, with UACC-62 and in the assay on UO-31 was > 100 µM (inactive) in each case.

In the case of `O=C1CS(=O)(=O)C(c2cccc(Oc3ccccc3)c2)N1c1cccc(Cl)c1` (stereo not drawn), the GI50 in the assay on 786-0 is 19.8 µM (inactive); with BT-549, 29.9 µM (inactive); in the assay with CAKI-1 it was 25.7 µM (inactive); in the assay on DU-145 it was 66.8 µM (inactive); in the assay on HCC 2998, 0.16 µM (active); in the assay with Hs-578T, 27.5 µM (inactive). The GI50 was 13.1 µM (inactive) in the assay with K562; 26.5 µM (inactive) with KM12; 15.7 µM (inactive) with LOX IMVI; 29.8 µM (inactive) in the assay with NCI/ADR-RES; 23.3 µM (inactive) with RXF 393; 18 µM (inactive) in the assay on SF-539. For the same compound, the GI50 in the assay on SK-MEL-2 was 16.3 µM (inactive); with SK-OV-3, 40.6 µM (inactive); in the assay with SNB-19, 43.4 µM (inactive); with SNB-75 it was 36.3 µM (inactive); in the assay on UACC-62, 12.5 µM (inactive); in the assay on UO-31, 37.1 µM (inactive).

On to `O=C(N/N=C(COc1ccccc1)\N=C\c1ccncc1)c1ccncc1`, for which the GI50 in the assay with 786-0, in the assay on BT-549, in the assay on CAKI-1, with DU-145, with HCC 2998 and with Hs-578T was > 100 µM (inactive) each time. The GI50 in the assay on K562 was > 100 µM (inactive); in the assay with KM12 it was > 100 µM (inactive); with LOX IMVI, > 100 µM (inactive); in the assay with NCI/ADR-RES, > 100 µM (inactive); in the assay on RPMI-8226, 97.5 µM (inactive); with RXF 393, > 100 µM (inactive). Besides, the GI50 is > 100 µM (inactive) in the assay on SF-539; > 100 µM (inactive) with SK-MEL-2; > 100 µM (inactive) in the assay with SK-OV-3; > 100 µM (inactive) in the assay with SNB-19; 34.5 µM (inactive) in the assay with SNB-75; > 100 µM (inactive) in the assay on UACC-62.
